{"source": "patent US12194033B2", "about": "“Glycine receptor modulators and methods of use” (University of Pittsburgh—Of the Commonwealth System of …, priority 2017, dated 2025)", "tested_on": "inflammatory markers in the liver and spleen of mice", "test": "In vivo immune responses by flow cytometry", "details": "2 mg/kg, ~16 hours prior to sacrifice", "protocol": "Toxicity was evaluated using in vitro Ames test and in vivo immune responses flow cytometry. Compound 1 (MJPY1) at each concentration was tested in three 48-well plates using the TA100 strain Salmonella typhimurium and S9 rat liver extract for base-pair substitution mutations. Error bars represent SEM. Significance (p<0.05) was evaluated compared to the control (0 μM) using one-way ANOVA with the Bonferroni post-hoc test. FIGS. 15A and 15B show flow cytometry evaluation of common inflammatory markers in the liver and spleen of mice in response to compound 1 (MJPY1) treatment. Mice received either 2 mg/kg of MJPY1 (right) or vehicle (left) ˜16 hours prior to sacrifice and tissue collection. Significant differences between the treatment and control were observed only for decreased CD11b+ in the liver of mice treated with MJPY1 (p<0.001). […] Results were analyzed by one-way ANOVA with Bonferroni post-hoc test.", "data": [{"smiles": "NC(=O)c1cccc(CNC(=O)c2ccc3c4c(cccc24)CC3)c1", "note": "[compound 1, N-[(3-carbamoylphenyl)-methyl]-1,2-dihydroacenaphthylene-5-carboxamide]", "values": [{"measurement": "overall immune response to treatment", "setting": "liver and spleen", "value": "minimal immune response"}, {"measurement": "CD11b+ in the liver vs vehicle", "setting": "p<0.001", "value": "decreased"}]}]}
